Data taken from PubChem BioAssay (NCI).
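Five concentrations, 48 hours, 96-well plates. TGI denotes the concentration required for complete inhibition of growth.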 Where a SMILES comes first, the peptide text is derived from it. The star is where a group is joined. Boc = CC(C)(C)OC(=O)*

Assays:
Assay in all cases: NCI anticancer screen, dose series, 48 h
[1] = test system: HCC-2998 colon
[2] = test system: SF-295 CNS
[3] = test system: IGROV1 ovarian
[4] = test system: DU-145 prostate
[5] = test system: SR leukemia
[6] = test system: SK-MEL-2 melanoma
[7] = test system: M14 melanoma
[8] = test system: SK-MEL-28 melanoma
[9] = test system: K-562 leukemia
[10] = test system: TK-10 renal
[11] = test system: MDA-MB-435
[12] = test system: HOP-62 NSCLC
[13] = test system: EKVX NSCLC
[14] = test system: HCT-116 colon
[15] = test system: SNB-75 CNS
[16] = test system: KM12 colon
[17] = test system: UO-31 renal
[18] = test system: A549 NSCLC
[19] = test system: T-47D breast
[20] = test system: OVCAR-8 ovarian
[21] = test system: NCI-H522 lung
[22] = test system: UACC-62 melanoma
[23] = test system: OVCAR-4 ovarian
[24] = test system: HCT-15 colon
[25] = test system: HT29 colon
[26] = test system: OVCAR-5 ovarian
[27] = test system: SW-620 colon
[28] = test system: HS 578T breast
[29] = test system: NCI-H23 lung
[30] = test system: MCF7 breast
[31] = test system: SF-268 CNS
[32] = test system: SK-MEL-5 melanoma
[33] = test system: OVCAR-3 ovarian
[34] = test system: LOX IMVI melanoma
[35] = test system: A498 renal
[36] = test system: U251 CNS
[37] = test system: BT-549 breast
[38] = test system: MOLT-4 leukemia
[39] = test system: HOP-92 NSCLC
[40] = test system: 786-0 renal
[41] = test system: MDA-N
[42] = test system: NCI-H460 lung
[43] = test system: SF-539 CNS
[44] = test system: SK-OV-3 ovarian
[45] = test system: CAKI-1 renal
[46] = test system: RPMI-8226 leukemia
[47] = test system: ACHN renal
[48] = test system: HL-60(TB) leukemia
[49] = test system: NCI/ADR-RES ovarian
[50] = test system: MDA-MB-231 breast
[51] = test system: NCI-H226 lung
[52] = test system: COLO 205 colon
[53] = test system: RXF 393 renal
[54] = test system: CCRF-CEM leukemia
[55] = test system: PC-3 prostate
[56] = test system: SN12C renal
[57] = test system: SNB-19 CNS
[58] = test system: UACC-257 melanoma
[59] = test system: MALME-3M melanoma

CN(O)C(=O)c1ccc(OCc2cccc(Cl)c2)cc1
TGI [1]: > 53.3 µM | TGI [2]: > 82.8 µM | TGI [3]: > 100 µM | TGI [4]: 98.2 µM | TGI [5]: > 72.4 µM | TGI [6]: > 100 µM | TGI [7]: > 50 µM | TGI [8]: > 100 µM | TGI [9]: > 100 µM | TGI [10]: > 100 µM | TGI [11]: > 100 µM | TGI [12]: > 100 µM | TGI [13]: > 100 µM | TGI [14]: > 100 µM | TGI [15]: > 100 µM | TGI [16]: > 100 µM | TGI [17]: > 66.5 µM | TGI [18]: > 100 µM | TGI [19]: 98.6 µM | TGI [20]: > 95.9 µM | TGI [21]: > 100 µM | TGI [22]: > 79.4 µM | TGI [23]: > 100 µM | TGI [24]: > 100 µM | TGI [25]: > 100 µM | TGI [26]: > 100 µM | TGI [27]: > 100 µM | TGI [28]: > 100 µM | TGI [29]: > 100 µM | TGI [30]: > 100 µM | TGI [31]: > 100 µM | TGI [32]: > 100 µM | TGI [33]: > 100 µM | TGI [34]: > 100 µM | TGI [35]: > 100 µM | TGI [36]: > 100 µM | TGI [37]: > 100 µM | TGI [38]: > 100 µM | TGI [39]: > 100 µM | TGI [40]: 53.1 µM | TGI [41]: > 100 µM | TGI [42]: > 100 µM | TGI [43]: > 51.6 µM | TGI [44]: > 100 µM | TGI [45]: > 92.6 µM | TGI [46]: > 100 µM | TGI [47]: > 68.3 µM | TGI [48]: 22.2 µM | TGI [49]: > 89.4 µM | TGI [50]: > 100 µM | TGI [51]: > 100 µM | TGI [52]: > 100 µM | TGI [53]: > 100 µM | TGI [54]: > 100 µM | TGI [55]: > 100 µM | TGI [56]: > 95.1 µM | TGI [57]: > 100 µM | TGI [58]: > 100 µM

COC(=O)C(Cc1c[nH]c2ccccc12)NC(=O)C(Cc1c[nH]c2ccccc12)NC(=O)C(Cc1c[nH]c2ccccc12)NC(=O)C(Cc1c[nH]c2ccccc12)NC(=O)C(Cc1c[nH]c2ccccc12)NC(=O)OC(C)(C)C (stereo unspecified) (Boc-WWWWW-OMe; configuration not given here)
TGI [1]: > 100 µM | TGI [3]: > 100 µM | TGI [4]: > 100 µM | TGI [5]: > 100 µM | TGI [6]: > 100 µM | TGI [7]: > 100 µM | TGI [8]: > 100 µM | TGI [9]: > 100 µM | TGI [10]: > 100 µM | TGI [11]: > 100 µM | TGI [12]: > 100 µM | TGI [14]: > 100 µM | TGI [15]: > 100 µM | TGI [59]: > 100 µM | TGI [17]: > 100 µM | TGI [18]: > 100 µM | TGI [19]: > 100 µM | TGI [20]: > 100 µM | TGI [21]: > 100 µM | TGI [22]: > 100 µM | TGI [23]: > 100 µM | TGI [24]: > 100 µM | TGI [25]: > 100 µM | TGI [26]: > 100 µM | TGI [27]: > 100 µM | TGI [29]: > 100 µM | TGI [30]: > 100 µM | TGI [31]: > 100 µM | TGI [32]: 56.5 µM | TGI [33]: > 100 µM | TGI [34]: > 100 µM | TGI [36]: > 100 µM | TGI [37]: > 100 µM | TGI [38]: > 100 µM | TGI [40]: > 100 µM | TGI [41]: > 100 µM | TGI [42]: > 100 µM | TGI [45]: > 100 µM | TGI [46]: > 100 µM | TGI [47]: > 100 µM | TGI [48]: 81.6 µM | TGI [50]: > 100 µM | TGI [51]: > 100 µM | TGI [54]: > 100 µM | TGI [55]: > 100 µM | TGI [56]: > 100 µM | TGI [57]: > 100 µM | TGI [58]: > 100 µM

CNc1nc2c(C)ccc3nc(N(C)C)nc-3c2n1C
TGI [1]: > 10 µM | TGI [2]: > 10 µM | TGI [3]: > 10 µM | TGI [4]: > 10 µM | TGI [6]: > 10 µM | TGI [7]: > 10 µM | TGI [8]: > 10 µM | TGI [9]: > 10 µM | TGI [10]: > 10 µM | TGI [11]: > 10 µM | TGI [12]: > 10 µM | TGI [13]: > 10 µM | TGI [14]: > 10 µM | TGI [15]: > 10 µM | TGI [16]: > 10 µM | TGI [59]: > 10 µM | TGI [17]: > 10 µM | TGI [18]: > 10 µM | TGI [19]: > 10 µM | TGI [20]: > 10 µM | TGI [21]: > 10 µM | TGI [23]: > 10 µM | TGI [24]: > 10 µM | TGI [25]: > 10 µM | TGI [26]: > 10 µM | TGI [27]: > 10 µM | TGI [28]: > 10 µM | TGI [29]: > 10 µM | TGI [30]: > 10 µM | TGI [31]: > 10 µM | TGI [32]: > 10 µM | TGI [33]: > 10 µM | TGI [35]: > 10 µM | TGI [36]: > 10 µM | TGI [37]: > 10 µM | TGI [38]: > 10 µM | TGI [39]: > 10 µM | TGI [40]: > 10 µM | TGI [41]: > 10 µM | TGI [42]: > 10 µM | TGI [43]: > 10 µM | TGI [44]: > 10 µM | TGI [45]: > 10 µM | TGI [46]: > 10 µM | TGI [47]: > 10 µM | TGI [49]: > 10 µM | TGI [50]: > 10 µM | TGI [51]: > 10 µM | TGI [52]: > 10 µM | TGI [53]: > 10 µM | TGI [54]: > 10 µM | TGI [55]: > 10 µM | TGI [56]: > 10 µM | TGI [57]: > 10 µM | TGI [58]: > 10 µM
